Reference: ChEMBL document CHEMBL1201861, “Genomics of Drug Sensitity in Cancer screening data, Wellcome Trust Sanger Institute”

How the values were obtained:
Assay in all cases: cells
CW-2 = format: functional, cell-based, Homo sapiens; details: Homo sapiens, CW-2;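 further: growth inhibition of CW-2 cells, read out by a cell viability assay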
D-542MG = format: functional, cell-based, Homo sapiens; details: Homo sapiens, D-542MG
Detroit 562 = format: functional, cell-based, Homo sapiens; details: Homo sapiens, Detroit 562;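 further: growth inhibition of human Detroit 562 cells, read out by a cell viability assay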
EW-3 = format: functional, cell-based; details: Homo sapiens;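 further: cell viability assay read-out, IC50 reflects inhibition of growth of the EW-3 cells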
FTC-133 = format: functional, cell-based, Homo sapiens; details: Homo sapiens, FTC-133
GAK = format: functional, cell-based, Homo sapiens; details: Homo sapiens, GAK;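 further: cell growth inhibition read out by a cell viability assay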
GOTO = format: functional, cell-based, Homo sapiens; details: Homo sapiens, GOTO;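 further: growth inhibition of GOTO cells, read out by a cell viability assay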
HCC38 = format: functional, cell-based, Homo sapiens; details: Homo sapiens, HCC38;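 further: cell viability assay on the human HCC38 cell line, with IC50 marking the concentration that inhibits cell growth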
HCT-116 = format: functional, cell-based, Homo sapiens; details: Homo sapiens, HCT-116
HOS = format: functional, cell-based, Homo sapiens; details: Homo sapiens, HOS;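 further: growth inhibition of human HOS cells, read out with a cell viability assay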
HPAF-II = format: functional, cell-based, Homo sapiens; details: Homo sapiens, HPAF-II;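 further: growth inhibition of HPAF-II cells, read out with a cell viability assay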
HT-144 = format: functional, cell-based, Homo sapiens; details: Homo sapiens, HT-144
JEG-3 = format: functional, cell-based, Homo sapiens; details: Homo sapiens, JEG-3;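 further: growth inhibition of human JEG-3 cells, read out with a cell viability assay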
KP-N-YN = format: functional, cell-based; details: Homo sapiens;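 further: growth inhibition of KP-N-YN cells, read out with a cell viability assay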
KU-19-19 = format: functional, cell-based, Homo sapiens; details: Homo sapiens, KU-19-19
L-363 = format: functional, cell-based; details: Homo sapiens
L-428 = format: functional, cell-based; details: Homo sapiens
LB996-RCC = format: functional, cell-based; details: Homo sapiens
LS-513 = format: functional, cell-based, Homo sapiens; details: Homo sapiens, LS-513
MFE-280 = format: functional, cell-based, Homo sapiens; details: Homo sapiens, MFE-280;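 further: growth inhibition of MFE-280 cells, determined with a cell viability readout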
ML-2 = format: functional, cell-based; details: Homo sapiens;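 further: growth inhibition of ML-2 cells, measured with a cell viability readout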
NB10 = format: functional, cell-based, Homo sapiens; details: Homo sapiens, NB10;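 further: growth inhibition of NB10 cells, read out by a cell viability assay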
NB13 = format: functional, cell-based, Homo sapiens; details: Homo sapiens, NB13;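 further: cell viability readout measuring growth inhibition of human NB13 cells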
NB6 = format: functional, cell-based, Homo sapiens; details: Homo sapiens, NB6
NB69 = format: functional, cell-based, Homo sapiens; details: Homo sapiens, NB69;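 further: growth inhibition of NB69 cells, determined by a cell viability assay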
NCI-H1650 = format: functional, cell-based, Homo sapiens; details: Homo sapiens, NCI-H1650;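 further: growth inhibition of human NCI-H1650 cells measured by a cell viability assay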
NCI-H2052 = format: functional, cell-based, Homo sapiens; details: Homo sapiens, NCI-H2052;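 further: growth inhibition of NCI-H2052 cells, read out with a cell viability assay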
NCI-H441 = format: functional, cell-based; details: Homo sapiens;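 further: growth inhibition of NCI-H441 cells, read out with a cell viability assay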
NCI-H510A = format: functional, cell-based; details: Homo sapiens;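 further: growth inhibition of NCI-H510A cells, read out with a cell viability assay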
NCI-H526 = format: functional, cell-based; details: Homo sapiens;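 further: growth inhibition of the human NCI-H526 cell line, measured by a cell viability assay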
NCI-H69 = format: functional, cell-based; details: Homo sapiens;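 further: growth inhibition of the cell line, read out with a cell viability assay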
OMC-1 = format: functional, cell-based, Homo sapiens; details: Homo sapiens, OMC-1;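 further: growth inhibition of the OMC-1 cell line, measured by a cell viability assay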
QIMR-WIL = format: functional, cell-based; details: Homo sapiens;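 further: growth inhibition of QIMR-WIL cells, read out with a cell viability assay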
SCH = format: functional, cell-based, Homo sapiens; details: Homo sapiens, SCH;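 further: growth inhibition of human SCH cells, read out in a cell viability assay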
SK-MEL-24 = format: functional, cell-based; details: Homo sapiens;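 further: growth inhibition read out by a cell viability assay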
SK-MEL3 = format: functional, cell-based, Homo sapiens, SK-MEL-3; details: Homo sapiens, SK-MEL3;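 further: growth inhibition of human SK-MEL-3 cells, read out with a cell viability assay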
SK-MEL-30 = format: functional, cell-based; details: Homo sapiens;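 further: growth inhibition of SK-MEL-30 cells, determined with a cell viability assay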
SK-MES-1 = format: functional, cell-based, Homo sapiens; details: Homo sapiens, SK-MES-1;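 further: growth inhibition of human SK-MES-1 cells, read out with a cell viability assay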
SW1088 = format: functional, cell-based, Homo sapiens; details: Homo sapiens, SW1088;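 further: growth inhibition of human SW1088 cells, read out by a cell viability assay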
SW1463 = format: functional, cell-based, Homo sapiens; details: Homo sapiens, SW1463;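 further: growth inhibition of SW1463 cells, determined with a cell viability assay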
SW1710 = format: functional, cell-based, Homo sapiens; details: Homo sapiens, SW1710;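 further: growth inhibition of SW1710 cells, determined with a cell viability assay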
T47D = format: functional, cell-based, Homo sapiens; details: Homo sapiens, T47D;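 further: growth inhibition of human T47D cells, measured with a cell viability assay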
5637 = format: functional, cell-based, Homo sapiens; details: Homo sapiens
639-V = format: functional, cell-based, Homo sapiens; details: Homo sapiens, 639-V;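 further: growth inhibition of 639-V cells, read out with a cell viability assay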
769-P = format: functional, cell-based, Homo sapiens; details: Homo sapiens, 769-P
C3A = format: functional, cell-based, Homo sapiens; details: Homo sapiens, C3A;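 further: growth inhibition of C3A human cells, quantified with a cell viability readout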
CAL-27 = format: functional, cell-based, Homo sapiens; details: Homo sapiens, CAL-27;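 further: Viability-based readout, IC50 reflecting inhibition of CAL-27 cell growth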
U-118-MG = format: functional, cell-based, Homo sapiens; details: Homo sapiens, U-118-MG
UMUC3 = format: functional, cell-based, Homo sapiens; details: Homo sapiens, UMUC3;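 further: growth inhibition of human UM-UC-3 cells, read out with a cell viability assay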
VM-CUB-1 = format: functional, cell-based; details: Homo sapiens;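 further: cell viability assay measuring growth inhibition of the human VM-CUB-1 cell line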
CAS-1 = format: functional, cell-based, Homo sapiens; details: Homo sapiens, CAS-1;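 further: growth inhibition of CAS-1 cells, measured with a cell viability assay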
COLO-320-HSR = format: functional, cell-based; details: Homo sapiens;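 further: growth inhibition of COLO-320-HSR cells, determined with a cell viability assay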
COLO-678 = format: functional, cell-based, Homo sapiens; details: Homo sapiens, COLO-678

Cc1ccc(Nc2nccc(N(C)c3ccc4c(C)n(C)nc4c3)n2)cc1S(N)(=O)=O [PAZOPANIB]
IC50 (CW-2): > 8000 nM | IC50 (D-542MG): > 8000 nM | IC50 (Detroit 562): > 8000 nM | IC50 (EW-3): > 8000 nM | IC50 (FTC-133): > 8000 nM | IC50 (GAK): […] | IC50 (GOTO): > 8000 nM | IC50 (HCC38): > 8000 nM | IC50 (HCT-116): > 8000 nM | IC50 (HOS): > 8000 nM | IC50 (HPAF-II): > 8000 nM | IC50 (HT-144): > 8000 nM | IC50 (JEG-3): > 8000 nM | IC50 (KP-N-YN): > 8000 nM | IC50 (KU-19-19): > 8000 nM | IC50 (L-363): > 8000 nM | IC50 (L-428): > 8000 nM | IC50 (LB996-RCC): > 8000 nM | IC50 (LS-513): > 8000 nM | IC50 (MFE-280): > 8000 nM | IC50 (ML-2): > 8000 nM | IC50 (NB10): > 8000 nM | IC50 (NB13): > 8000 nM | IC50 (NB6): > 8000 nM | IC50 (NB69): > 8000 nM | IC50 (NCI-H1650): > 8000 nM | IC50 (NCI-H2052): > 8000 nM | IC50 (NCI-H441): > 8000 nM | IC50 (NCI-H510A): > 8000 nM | IC50 (NCI-H526): > 8000 nM | IC50 (NCI-H69): > 8000 nM | IC50 (OMC-1): > 8000 nM | IC50 (QIMR-WIL): > 8000 nM | IC50 (SCH): > 8000 nM | IC50 (SK-MEL-24): > 8000 nM | IC50 (SK-MEL3): > 8000 nM | IC50 (SK-MEL-30): > 8000 nM | IC50 (SK-MES-1): 6870 nM | IC50 (SW1088): > 8000 nM | IC50 (SW1463): > 8000 nM | IC50 (SW1710): 4470 nM | IC50 (T47D): > 8000 nM | IC50 5637: > 8000 nM | IC50 (639-V): > 8000 nM | IC50 (769-P): > 8000 nM | IC50 (C3A): > 8000 nM | IC50 (CAL-27): > 8000 nM | IC50 (U-118-MG): > 8000 nM | IC50 (UMUC3): > 8000 nM | IC50 (VM-CUB-1): > 8000 nM | IC50 (CAS-1): 7760 nM | IC50 (COLO-320-HSR): > 8000 nM | IC50 (COLO-678): > 8000 nM

C[C@]1(O)C[C@@H](c2nc(-c3ccc4ccc(-c5ccccc5)nc4c3)c3c(N)nccn32)C1 [LINSITINIB]
IC50 (CW-2): > 2560 nM | IC50 (D-542MG): > 2560 nM | IC50 (Detroit 562): > 2560 nM | IC50 (EW-3): 2100 nM | IC50 (FTC-133): > 2560 nM | IC50 (GAK): > 2560 nM | IC50 (GOTO): > 2560 nM | IC50 (HCC38): > 2560 nM | IC50 (HCT-116): > 2560 nM | IC50 (HOS): > 2560 nM | IC50 (HPAF-II): > 2560 nM | IC50 (HT-144): 262 nM | IC50 (JEG-3): > 2560 nM | IC50 (KP-N-YN): > 2560 nM | IC50 (KU-19-19): > 2560 nM | IC50 (L-363): 1340 nM | IC50 (L-428): > 2560 nM | IC50 (LB996-RCC): > 2560 nM | IC50 (LS-513): 2050 nM | IC50 (MFE-280): > 2560 nM | IC50 (ML-2): 159 nM | IC50 (NB10): 454 nM | IC50 (NB13): > 2560 nM | IC50 (NB6): > 2560 nM | IC50 (NB69): 583 nM | IC50 (NCI-H1650): > 2560 nM | IC50 (NCI-H2052): > 2560 nM | IC50 (NCI-H441): > 2560 nM | IC50 (NCI-H510A): > 2560 nM | IC50 (NCI-H526): > 2560 nM | IC50 (NCI-H69): > 2560 nM | IC50 (OMC-1): > 2560 nM | IC50 (QIMR-WIL): > 2560 nM | IC50 (SCH): > 2560 nM | IC50 (SK-MEL-24): > 2560 nM | IC50 (SK-MEL3): 1490 nM | IC50 (SK-MEL-30): > 2560 nM | IC50 (SK-MES-1): > 2560 nM | IC50 (SW1088): > 2560 nM | IC50 (SW1463): > 2560 nM | IC50 (SW1710): > 2560 nM | IC50 (T47D): > 2560 nM | IC50 5637: > 2560 nM | IC50 (639-V): > 2560 nM | IC50 (769-P): > 2560 nM | IC50 (C3A): > 2560 nM | IC50 (CAL-27): > 2560 nM | IC50 (U-118-MG): > 2560 nM | IC50 (UMUC3): > 2560 nM | IC50 (VM-CUB-1): > 2560 nM | IC50 (CAS-1): > 2560 nM | IC50 (COLO-320-HSR): 414 nM | IC50 (COLO-678): > 2560 nM

C=CCc1cccc(/C=N/NC(=O)CN2CCN(Cc3ccccc3)CC2)c1O [PAC-1]
IC50 (CW-2): > 2560 nM | IC50 (D-542MG): > 2560 nM | IC50 (Detroit 562): > 2560 nM | IC50 (EW-3): > 2560 nM | IC50 (FTC-133): > 2560 nM | IC50 (GAK): > 2560 nM | IC50 (GOTO): > 2560 nM | IC50 (HCC38): > 2560 nM | IC50 (HCT-116): > 2560 nM | IC50 (HOS): > 2560 nM | IC50 (HPAF-II): > 2560 nM | IC50 (HT-144): 2500 nM | IC50 (JEG-3): > 2560 nM | IC50 (KP-N-YN): > 2560 nM | IC50 (KU-19-19): > 2560 nM | IC50 (L-363): > 2560 nM | IC50 (L-428): 1330 nM | IC50 (LB996-RCC): > 2560 nM | IC50 (LS-513): > 2560 nM | IC50 (MFE-280): > 2560 nM | IC50 (ML-2): > 2560 nM | IC50 (NB10): > 2560 nM | IC50 (NB13): > 2560 nM | IC50 (NB6): > 2560 nM | IC50 (NB69): > 2560 nM | IC50 (NCI-H1650): > 2560 nM | IC50 (NCI-H2052): > 2560 nM | IC50 (NCI-H441): > 2560 nM | IC50 (NCI-H510A): > 2560 nM | IC50 (NCI-H526): > 2560 nM | IC50 (NCI-H69): > 2560 nM | IC50 (OMC-1): > 2560 nM | IC50 (QIMR-WIL): > 2560 nM | IC50 (SCH): > 2560 nM | IC50 (SK-MEL-24): > 2560 nM | IC50 (SK-MEL3): > 2560 nM | IC50 (SK-MEL-30): > 2560 nM | IC50 (SK-MES-1): > 2560 nM | IC50 (SW1088): > 2560 nM | IC50 (SW1463): > 2560 nM | IC50 (SW1710): > 2560 nM | IC50 (T47D): > 2560 nM | IC50 5637: > 2560 nM | IC50 (639-V): > 2560 nM | IC50 (769-P): > 2560 nM | IC50 (C3A): > 2560 nM | IC50 (CAL-27): > 2560 nM | IC50 (U-118-MG): > 2560 nM | IC50 (UMUC3): > 2560 nM | IC50 (VM-CUB-1): > 2560 nM | IC50 (CAS-1): > 2560 nM | IC50 (COLO-320-HSR): > 2560 nM | IC50 (COLO-678): > 2560 nM
